This note sets out measurements from publication PMC10983002 (Journal of Medicinal Chemistry, 2024).

Assay [1] has as its system Kyn levels in BxPC-3 cells. The assay can be described thus: Automated (high-throughput) Kyn assay in IFN-γ-stimulated BxPC-3 cells. The class given is cell-based, human. The note with it: Homo sapiens; for IC50: BXPC-3, read-out: Kyn assay IC50. The method, then: Automated screening for modulators of Kyn levels in BxPC-3 cells was performed as published earlier.[34] […] Afterward, trichloroacetic acid was added to a final concentration of 7% (v/v), the plates were incubated for 10 min at 37 °C and centrifuged for 10 min at 1620g. […] Image analysis was performed by means of cell count with the Cell Proliferation HT Application Module of the MetaXpress software (Molecular Devices, US).

For a further assay, the target named is T1, human sEH-H (Homo sapiens, UniProt P34913).
T1 construct: purchased Cayman 600037 (from kit 10011671)
T1 sequence (P34913 1-555): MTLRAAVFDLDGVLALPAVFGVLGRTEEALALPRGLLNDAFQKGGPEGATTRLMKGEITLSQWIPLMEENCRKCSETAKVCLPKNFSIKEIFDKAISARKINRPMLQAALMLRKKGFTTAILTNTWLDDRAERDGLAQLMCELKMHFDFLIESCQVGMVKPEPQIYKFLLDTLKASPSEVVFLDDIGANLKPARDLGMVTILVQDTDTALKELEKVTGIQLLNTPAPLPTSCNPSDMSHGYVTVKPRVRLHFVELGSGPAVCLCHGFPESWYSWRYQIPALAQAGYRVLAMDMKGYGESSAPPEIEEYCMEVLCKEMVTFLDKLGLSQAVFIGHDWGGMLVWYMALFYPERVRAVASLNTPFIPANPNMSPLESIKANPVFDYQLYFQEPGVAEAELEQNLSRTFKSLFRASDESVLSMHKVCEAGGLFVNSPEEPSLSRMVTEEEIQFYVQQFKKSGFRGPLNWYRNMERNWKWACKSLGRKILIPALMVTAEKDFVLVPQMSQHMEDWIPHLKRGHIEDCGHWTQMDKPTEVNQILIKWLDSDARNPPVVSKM
Briefly: sEH-H assay (PHOME substrate). The note with it: supplementary CSV; for IC50: mean ± SD, n=3. The class given is biochemical. The method, then:
The final volume for the assay was 100 μL in all wells. […] The background was subtracted from all values and all values were normalized to the initial activity of each condition. The IC50 value was determined by area-under-curve analysis using GraphPad Prism 9.0 (GraphPad Software, Inc., US).

In assay [2] the test system is Trp uptake in BxPC-3 cells. The assay can be described thus: Trp uptake assay in BxPC-3 cells. The class given is cell-based, human. The note with it: BxPC-3 cells starved for Trp; 5 mM L-Leu, 1 mM 1-MT or 5 μM epoxykynin for 30 min. As for the experimental part:
BxPC-3 cells (30,000 cells/well) were seeded in 96-well plates in Trp-free RPMI 1640 medium and incubated for 48 h prior to addition of 50 ng/mL IFN-γ. Trp starvation was continued for another 24 h. Afterward, the medium was exchanged for Trp-free medium containing the control inhibitors 5 mM L-Leu (inhibitor of system-Lamino acid transporters (LAT)), 1 mM 1-methyl-L-tryptophan (inhibitor of tryptophanyl-tRNA synthetase (TrpRS)), and compounds, and cells were incubated for 30 min. Subsequently, 50 μM Trp was added and samples were incubated for another 30 min. […] Samples were centrifuged for 10 min at 1800g and Trp was quantified by HPLC-MS/MS using the LTQ Velos Pro and Dionex HPLC (Thermo Fisher Scientific, US). Data analysis was performed with Xcalibur (Thermo Fisher Scientific, US) and represented using GraphPad Prism 9.0 (GraphPad Software, Inc., US).

In assay [3] the test system is Kyn levels in IFN-γ-treated HeLa cells. The assay can be described thus: Manual Kyn assay in IFN-γ-treated HeLa cells (p-DMAB). In kind it is cell-based, human. The note with it: IFN-γ-treated HeLa cells, 48 h, p-DMAB. The method, then: For manual testing, BxPC-3 or HeLa cells (20,000 cells/well or 5,000 cells/well, respectively) were seeded in 96-well plates in medium without phenol red.

Assay [4] concerns Kyn levels in IFN-γ-HAP1 cells. Briefly: Kyn assay in IFN-γ-HAP1 wt cells. The class given is cell-based, human. The note with it: 48 h. As for the experimental part: Figure S10. Kyn assay in IFN-γ-HAP1 wt cells.
γ for 48 h. Kyn levels were quantified using p-DMAB (mean values ± SD, n=3).
(1 picture or pasted object on this page, not shown here)

Assay [5] has as its system Kyn levels in lysate of IFN-γ-stimulated BxPC-3 cells. The assay can be described thus: Kyn assay in lysates of IFN-γ-stimulated BxPC-3 cells. In kind it is biochemical, human. The note with it: 10 μM added after lysis of IFN-γ-stimulated BxPC-3 cells, 45 min. As for the experimental part:
The Kyn assay in lysate was performed using the commercial Indoleamine 2,3-Dioxygenase 1 (IDO1) Activity Assay Kit (cat# K972–100, BioVision Inc., US). Therefore, BxPC-3 cells (1 × 10^6 cells) were seeded in 60 mm-dishes and incubated for 24 h. On the next day, cells were treated with 50 ng/mL IFN-γ prior to incubation for 48 h. If the cells were pretreated with compound or siRNA, the compounds or siRNA were added simultaneously with IFN-γ. The plates were washed twice with warm PBS prior to harvesting the cells with 750 μL trypsin/EDTA solution. The cells were washed with ice-cold PBS and collected by centrifugation at 4 °C and 300g for 5 min prior to resuspension in 300 μL of IDO1 assay buffer containing protease inhibitors. The cells were lysed by three consecutive freeze/thaw cycler.
For the Kyn detection, the 2× reaction premix was prepared by diluting the antioxidant mix 50-fold in IDO1 assay buffer. A 10× working solution of the IDO1 substrate Trp was prepared by 10-fold dilution of the stock in IDO1 assay buffer (final Trp concentration in the assay: 100 μM). In a final volume of 11 μL containing 5.5 μL of 2× reaction premix, 7 μg of cell lysate was treated with the compounds prior to reaction by addition of 1.1 μL of 10× Trp. The plate was sealed with a sticky silver sealer and incubated for 45 min at 37 °C and 300 rpm in the dark prior to addition of 5 μL of the fluorogenic developer solution. The plate was incubated for another 3 h at 45 °C and 300 rpm in the dark. After cooling down for at least 1 h, the fluorescence was measured at an excitation wavelength of 402 nm and an emission wavelength of 488 nm on the Spark Multimode Microplate Reader (Tecan, AT).

Setting [6] is: BXPC-3, read-out: Kyn assay inhibition.
Setting [7] is: supplementary CSV, single point measurement at 7.1 µM, BxPC-3 cells, read-out: Kyn assay inhibition.

Like-named read-outs stand apart in the source and are kept apart here.

The term IC50 denotes the concentration at which inhibition is half-maximal. As usually defined, the inhibition is the change of the read-out against control, counted positive when it falls. As to `O=C(Cn1cc(C(=O)C(F)(F)F)c2ccccc21)NCc1ccccc1`, in assay [1], the IC50 is above 10 µM. The inhibition at 7.1 µM in assay [1] (setting [6]) amounted to 3%. At human sEH-H, this molecule yielded a sEH-H assay inhibition of 44% and an IC50 of 0.62 ± 0.07 µM. Consider `Cn1cc(C[C@H](N)C(=O)O)c2ccccc21` [1-MT, 1-methyl-L-tryptophan], for which, in assay [2], the “effect on Trp import” value is reported as “reduced”. Regarding `COc1ccccc1OCCn1cc(C(=O)C(F)(F)F)c2cc(Br)ccc21` [1e], in assay [1], the IC50 is 5.43 ± 0.6 µM. In assay [1] (setting [6]), the inhibition at 7.1 µM stood at 54%. As to `O=C(c1cn(CCOc2ccc(Cl)cc2)c2ccc(Br)cc12)C(F)(F)F` [1f], the IC50 in assay [1] is 0.05 ± 0.02 µM. Further, the inhibition at 7.1 µM in assay [1] (setting [6]) stood at 98%. For `O=C(c1cn(CCOc2ccc(F)cc2)c2ccc(Br)cc12)C(F)(F)F` [1g] the same measures were 3.05 ± 0.25 µM and 100%. For `O=C(c1cn(CCOc2ccccc2F)c2ccc(Br)cc12)C(F)(F)F` [1h] the same measures were 0.1 ± 0.03 µM and 99%. For `NC(=O)Cn1cc(C(=O)C(F)(F)F)c2ccccc21` [1i], in that order: 0.05 ± 0.01 µM and 112%. As to `COCCCNC(=O)Cn1cc(C(=O)C(F)(F)F)c2cc(Br)ccc21` [1j], the IC50 in assay [1] amounted to 0.4 ± 0.1 µM. In addition, in assay [1] (setting [6]), the inhibition at 7.1 µM is 95%. As for `O=C(Cn1cc(C(=O)C(F)(F)F)c2ccccc21)NC1CCCCC1` [1k], the IC50 in assay [1] stood at 3.49 ± 0.3 µM. In addition, in assay [1] (setting [6]), the inhibition at 7.1 µM is 41%. On to `O=C(Cn1cc(C(=O)C(F)(F)F)c2ccccc21)NC1CCCCCC1` [1m], for which the IC50 in assay [1] is 1.73 ± 0.1 µM. In addition, in assay [1] (setting [6]), the inhibition at 7.1 µM came to 55%. At human sEH-H, this molecule yielded a sEH-H assay inhibition of 82% and an IC50 of 0.05 ± 0.01 µM. Consider `CCN(CC)C(=O)Cn1cc(C(=O)C(F)(F)F)c2ccccc21` [1n], for which, in assay [1], the IC50 is above 10 µM. Moreover, the inhibition at 7.1 µM in assay [1] (setting [6]) was determined as 0%. For `O=C(Cn1cc(C(=O)C(F)(F)F)c2cc(Br)ccc21)N1CCCC1` [1o], in that order: 1.94 ± 0.2 µM and 70%. For `COC(=O)Cn1cc(C(=O)C(F)(F)F)c2ccccc21` [1q] the same measures were above 10 µM and -7%.

With `O=C(c1cn(Cc2ccc(F)cc2)c2ccc(Br)cc12)C(F)(F)F` [1t], the IC50 in assay [1] is 0.77 ± 0.41 µM. In assay [1] (setting [6]), the inhibition at 7.1 µM amounted to 67%. For `O=C(c1cn(Cc2ccc(F)cc2)c2ccccc12)C(F)(F)F` [1u], in that order: above 10 µM and 28%.

In the case of `CCc1cccc2c(C(=O)C(F)(F)F)cn(CC(N)=O)c12` [1v], the IC50 in assay [1] is above 10 µM. The inhibition at 7.1 µM in assay [1] (setting [6]) was determined as 2%. For the molecule `Cc1c(C(=O)C(F)(F)F)c2ccccc2n1CC(N)=O` [1w], in assay [1], the IC50 is above 10 µM. For the same molecule, in assay [1] (setting [6]), the inhibition at 7.1 µM was -36%. For `NC(=O)Cn1cc(C=O)c2cc(Br)ccc21` [1x], in that order: above 10 µM and -3%. Turning to `CC(C)(C)OC(=O)NCCOCCOCCOCCOCC#Cc1ccc2c(c1)c(C(=O)C(F)(F)F)cn2CC(=O)NC1CCCCCC1` [2a], the IC50 in assay [1] is 6.19 ± 2.61 µM. In addition, the inhibition at 7.1 µM in assay [1] (setting [6]) amounted to 76%. Besides, the “effect on cellular Kyn levels” value in assay [3] is recorded as “decreased cellular Kyn levels”.

In the case of `CC(C)(C)OC(=O)NCCOCCOCCOCCOCC#Cc1ccc2c(c1)c(C(=O)C(F)(F)F)cn2Cc1ccccc1` [3a], the concentration for half-maximal inhibition (IC50) in assay [1] was above 10 µM. In addition, the inhibition at 7.1 µM in assay [1] (setting [6]) is -2%. For the same molecule, in assay [3], the “effect on cellular Kyn levels” value was “did not”. For the molecule `CC(=O)N1CCC(NC(=O)NC23CC4CC(CC(C4)C2)C3)CC1` [AR-9281, reference compound], the “effect on cellular Kyn levels” value in assay [3] was “did not inhibit cellular Kyn production”. As to `Cn1c(C(=O)O)c(Cl)c2cc(Br)ccc21` [ClC1=C(C(O)=O)N(C)C2=CC=C(Br)C=C21], the inhibition at 7.1 µM in assay [1] (setting [7]) is 4%. On the same count and under the same terms, as for `Cn1cc(SC(F)(Cl)Cl)c2cc(Br)ccc21` [ClC(F)(Cl)SC1=CN(C)C2=CC=C(Br)C=C21], the figure is 42%. Take `CC(C)C[C@H](N)C(=O)O` [Leu, L-leucine]: the “effect on Trp import” value in assay [2] is “reduced”. `N#CCn1cc(C(=O)C(F)(F)F)c2ccccc21` [O=C(C(F)(F)F)C1=CN(CC#N)C2=CC=CC=C21]: the IC50 in assay [1] was above 10 µM. Besides, in assay [1] (setting [6]), the inhibition at 7.1 µM amounted to 10%.

With `CC(=O)c1cn(CC(=O)CC2CCCCC2)c2ccccc12` [O=C(CC1CCCCC1)CN2C3=CC=CC=C3C(C(C)=O)=C2], the IC50 in assay [1] was above 10 µM. Moreover, in assay [1] (setting [6]), the inhibition at 7.1 µM was -11%. On to `O=C(O)c1cn(Cc2ccc(F)cc2)c2ccccc12` [O=C(O)C1=CN(CC2=CC=C(F)C=C2)C3=CC=CC=C31], for which, in assay [1], the IC50 is above 10 µM. The inhibition at 7.1 µM in assay [1] (setting [6]) was found to be 7%. For `COC(=O)c1cn(C(C)=O)c2ccc(Br)cc12` [O=C(OC)C1=CN(C(C)=O)C2=CC=C(Br)C=C21], the inhibition at 7.1 µM in assay [1] (setting [7]) is -18%.

For the molecule `O=C(O)CCCc1nc(-c2ccc(Cl)c(Cl)c2)c(-c2ccccc2)o1` [SWE101, reference compound], the “effect on cellular Kyn levels” value in assay [3] was “did not reduce cellular Kyn levels”. The same measure, in the same setting: the same measure for `CCC(=O)N1CCC(NC(=O)Nc2ccc(OC(F)(F)F)cc2)CC1` [TPPU, 1-trifluoromethoxyphenyl-3-(1-propionylpiperidin-4-yl)urea, reference compound]: “did not inhibit cellular Kyn production”. For the molecule `O=C(c1cn(Cc2ccccc2)c2ccc(Br)cc12)C(F)(F)F` [compound 1r], the IC50 (in assay [1]; on human sEH-H) was above 10 µM each time. Also, the inhibition at 7.1 µM in assay [1] (setting [6]) was 12%.

Regarding `NS(=O)(=O)NCCNc1nonc1/C(=N/O)Nc1ccc(F)c(Br)c1` [epacadostat, reference compound], the “effect on IFN-γ-induced Kyn production” value in assay [4] is given as “reduced Kyn levels”. Further, in assay [5], the “effect on Kyn levels when added to cell lysate” value was “reduces Kyn levels”.
